One may read the Ki as a measure of affinity in units of concentration, obtained from inhibition or displacement. The term EC50 denotes the concentration giving half of the maximal effect. Lower therefore signals an effect from little substance.

Experiment [1] addresses T1, rat CB2 (Rattus norvegicus, UniProt Q9QZN9).
T1 sequence (Q9QZN9 1-360): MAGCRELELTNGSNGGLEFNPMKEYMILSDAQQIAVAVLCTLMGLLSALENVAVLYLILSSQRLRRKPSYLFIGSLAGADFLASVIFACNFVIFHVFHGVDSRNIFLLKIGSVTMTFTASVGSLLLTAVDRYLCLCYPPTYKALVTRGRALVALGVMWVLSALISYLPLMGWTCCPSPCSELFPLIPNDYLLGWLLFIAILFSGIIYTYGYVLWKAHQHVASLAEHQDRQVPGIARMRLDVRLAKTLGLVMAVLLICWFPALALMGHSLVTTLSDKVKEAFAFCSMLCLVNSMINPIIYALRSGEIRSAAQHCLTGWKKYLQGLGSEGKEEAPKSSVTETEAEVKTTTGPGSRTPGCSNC
Description: rat CB2 radioligand binding assay ([3H]CP-55,940 competition). On the set-up: expressed in transfected cells; host or cells: HEK293.

For experiment [2], the target named is T1, rat CB2. Description: rat CB2 cyclase functional assay (HitHunter cAMP, HEK cells). More on the design: expressed in transfected cells; host or cells: HEK. The settings on record: forskolin 18 μM. It counts as cell-based.
In a further experiment the target is T2, human CB2 receptors (Homo sapiens, UniProt P34972).
T2 construct: expressed in transfected cells; host or cells: HEK293
As to the kind of experiment: human CB2 radioligand binding assay ([3H]CP-55,940 competition).

Structures are written as SMILES. Like-named read-outs stand apart in the source and are kept apart here.

T2 sequence (P34972 whole entry): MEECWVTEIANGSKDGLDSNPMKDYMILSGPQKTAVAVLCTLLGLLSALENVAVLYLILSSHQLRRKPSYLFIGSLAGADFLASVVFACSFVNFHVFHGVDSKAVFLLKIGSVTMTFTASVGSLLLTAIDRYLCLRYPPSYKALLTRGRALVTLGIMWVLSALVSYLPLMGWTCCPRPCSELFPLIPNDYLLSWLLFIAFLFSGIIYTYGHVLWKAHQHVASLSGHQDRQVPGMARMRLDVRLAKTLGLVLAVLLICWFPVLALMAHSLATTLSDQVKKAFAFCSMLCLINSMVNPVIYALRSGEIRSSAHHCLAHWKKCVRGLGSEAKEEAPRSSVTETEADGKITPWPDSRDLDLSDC

For the molecule `CCOCc1cn(C(C)(C)C)s/c1=N\C(=O)c1cc(Cl)ccc1OC` [Example 29, N-[(5Z)-2-tert-butyl-4-(ethoxymethyl)isothiazol-5(2H)-ylidene]-5-chloro-2-methoxybenzamide], the Ki at rat CB2 [1] was found to be 13 nM; at human CB2 receptors it was 180 nM. Also, the half-maximal effective concentration (EC50) at rat CB2 [2] was 0.41 nM.
`COc1ccc(Cl)cc1C(=O)/N=c1\sn(C(C)(C)C)cc1Cc1ccco1` [Example 50, N-[(5Z)-2-tert-butyl-4-(2-furylmethyl)isothiazol-5(2H)-ylidene]-5-chloro-2-methoxybenzamide]: the figures for the inhibitory constant (Ki) on rat CB2 [1] and at human CB2 receptors were 2.5 nM and 19 nM, respectively. Further, a half-maximal response on rat CB2 [2] (EC50) required 0.13 nM.
Taken in the same sequence, the figures for `COc1ccc(Cl)cc1C(=O)/N=c1\sn(C(C)(C)C)cc1Cc1cscn1` [Example 52, N-[(5Z)-2-tert-butyl-4-(1,3-thiazol-4-ylmethyl)isothiazol-5(2H)-ylidene]-5-chloro-2-methoxybenzamide] were 4.8 nM, 43 nM and 0.15 nM.
On to `CCCCc1cn(C(C)(C)C)s/c1=N\C(=O)c1cc(C(F)(F)F)ccc1OCC1CCCCN1C` (stereo not shown) [Example 196, N-[(5Z)-4-butyl-2-tert-butylisothiazol-5(2H)-ylidene]-2-[(1-methylpiperidin-2-yl)methoxy]-5-(trifluoromethyl)benzamide], for which the inhibition constant Ki on rat CB2 [1] was found to be 28.8 nM; at human CB2 receptors, 18 nM. The molecule further displayed a half-maximal effective concentration (EC50) at rat CB2 [2] of 2.4 nM.
As to `CCOc1ccc(C(F)(F)F)cc1C(=O)/N=c1\sn(C(C)(C)C)cc1CC(C)C` [Example 146, N-[(5Z)-2-tert-butyl-4-isobutylisothiazol-5(2H)-ylidene]-2-ethoxy-5-(trifluoromethyl)benzamide], the values for the inhibition constant Ki on rat CB2 [1] and at human CB2 receptors were 3.1 nM and 24 nM, respectively. This molecule returned an EC50 on rat CB2 [2] of 0.29 nM.
Consider `COc1ccc(Cl)cc1C(=NC#N)/N=c1\sn(C(C)(C)C)cc1CCCC#N` [Example 128, N-[(5Z)-2-tert-butyl-4-(3-cyanopropyl)isothiazol-5(2H)-ylidene]-5-chloro-N′-cyano-2-methoxybenzenecarboximidamide], for which the Ki at rat CB2 [1] amounted to 5.8 nM; on human CB2 receptors, 15 nM. The molecule further displayed an EC50 on rat CB2 [2] of 0.26 nM.
Turning to `CCCCc1cn(C(C)(C)C)s/c1=N\C(=O)[C@H]1CC[C@@](C)(C(=O)OC)C1(C)C` [Example 170, Methyl (1R,3S)-3-({[(5Z)-4-butyl-2-tert-butylisothiazol-5(2H)-ylidene]amino}carbonyl)-1,2,2-trimethylcyclopentanecarboxylate], the results for the inhibition constant (Ki) on rat CB2 [1] and on human CB2 receptors were 1.7 nM and 1.4 nM, respectively. Also, at rat CB2 [2], the EC50 was determined as 0.043 nM.
For `CCCCc1cn(C(C)(C)C)s/c1=N\S(=O)(=O)c1cccc2ccccc12` [Example 116, N-[(5Z)-4-butyl-2-tert-butylisothiazol-5(2H)-ylidene]naphthalene-1-sulfonamide], the inhibitory constant (Ki) at rat CB2 [1] stood at 45 nM; on human CB2 receptors it was 50 nM. Further, the response on rat CB2 [2] was half-maximal at 2.4 nM (EC50).
The matching figures for `CCCCc1cn(C(C)(C)C)s/c1=N\C(=O)c1cc(F)ccc1OC` [Example 42, N-[(5Z)-4-butyl-2-tert-butylisothiazol-5(2H)-ylidene]-5-fluoro-2-methoxybenzamide]: 2.3 nM, 24 nM and 0.31 nM.
With `COc1ccc(Cl)cc1C(=O)/N=c1\sn(C(C)(C)C)cc1CC1CCCC1` [Example 136, N-[(5Z)-2-tert-butyl-4-(cyclopentylmethyl)isothiazol-5(2H)-ylidene]-5-chloro-2-methoxybenzamide], the inhibition constant (Ki) on rat CB2 [1] was 0.51 nM; on human CB2 receptors, 1.9 nM. At rat CB2 [2], this molecule displayed an EC50 of 0.051 nM.
Molecule `CCCCc1cn(C(C)(C)C)s/c1=N\C(=O)c1cc(S(C)(=O)=O)ccc1OC` [Example 48, N-[(5Z)-4-butyl-2-tert-butylisothiazol-5(2H)-ylidene]-2-methoxy-5-(methylsulfonyl)benzamide] had a Ki on rat CB2 [1] of 22 nM. On rat CB2 [2], this molecule registered an EC50 of 0.56 nM.
As for `CCCCc1cn(C(C)(C)C)s/c1=N\C(=O)[C@]1(C)CC[C@H](C(=O)NCC)C1(C)C` [Example 201, (1R,3S)—N^1-[(5Z)-4-butyl-2-tert-butylisothiazol-5(2H)-ylidene]-N^3-ethyl-1,2,2-trimethylcyclopentane-1,3-dicarboxamide], at rat CB2 [2], the concentration for a half-maximal effect (EC50) came out at 3.5 nM. This molecule came in with an inhibition constant Ki at human CB2 receptors of 180 nM.
In turn, `COC(=O)CCCc1cn(C(C)(C)C)s/c1=N\C(=O)c1cc(C#N)ccc1OC` [Example 46, Methyl 4-{(5Z)-2-tert-butyl-5-[(5-cyano-2-methoxybenzoyl)imino]-2,5-dihydroisothiazol-4-yl}butanoate] returned a Ki at rat CB2 [1] of 17 nM. For the same molecule, on rat CB2 [2], the concentration for a half-maximal effect (EC50) is 0.56 nM.
Consider `CCCCc1cn(C(C)(C)C)s/c1=N\C(=O)[C@@H]1CC[C@](C)(C(=O)O)C1(C)C` [Example 205, (1S,3R)-3-({[(5Z)-4-butyl-2-tert-butylisothiazol-5(2H)-ylidene]amino}carbonyl)-1,2,2-trimethylcyclopentanecarboxylic acid], for which the response on rat CB2 [2] was half-maximal at 11.7 nM (EC50). The molecule further gave an inhibitory constant (Ki) at human CB2 receptors of 21 nM.
As to `CCCCc1cn(C(C)(C)C)s/c1=N\C(=O)[C@@H]1CC[C@](C)(C(=O)OC)C1(C)C` [Example 204, Methyl (1S,3R)-3-({[(5Z)-4-butyl-2-tert-butylisothiazol-5(2H)-ylidene]amino}carbonyl)-1,2,2-trimethylcyclopentanecarboxylate], the concentration giving a half-maximal response (EC50) at rat CB2 [2] amounted to 0.34 nM. The same molecule came in with a Ki at human CB2 receptors of 0.6 nM.
`CCCCc1cn(C(C)(C)C)s/c1=N\C(=O)[C@]1(C)CC[C@H](C(=O)NCCO)C1(C)C` [Example 203, (1R,3S)—N^1-[(5Z)-4-butyl-2-tert-butylisothiazol-5(2H)-ylidene]-N^3-(2-hydroxyethyl)-1,2,2-trimethylcyclopentane-1,3-dicarboxamide] yielded a concentration giving a half-maximal response (EC50) on rat CB2 [2] of 3.9 nM. This molecule had a Ki on human CB2 receptors of 70 nM.
Take `CCCCc1cn(C(C)(C)C)s/c1=N\C(=O)c1cc(I)ccc1OC` [Example 61, N-[(5Z)-4-butyl-2-tert-butylisothiazol-5(2H)-ylidene]-5-iodo-2-methoxybenzamide]: the Ki is 0.51 nM at rat CB2 [1] and 7.6 nM on human CB2 receptors.
Regarding `CCCCc1cn(C(C)(C)C)s/c1=N\C(=O)c1cc(C(F)(F)F)ccc1ONC(C)(C)C` [Example 267, 2-[(tert-butylamino)oxy]-N-[(5Z)-4-butyl-2-tert-butylisothiazol-5(2H)-ylidene]-5-(trifluoromethyl)benzamide], the Ki at rat CB2 [1] came out at 1 nM; at human CB2 receptors, 19 nM.
In the case of `CCCCc1cn(C(C)(C)C)s/c1=N\C(=O)c1cc(C(F)(F)F)ccc1OCc1cnccn1` [Example 198, N-[(5Z)-4-butyl-2-tert-butylisothiazol-5(2H)-ylidene]-2-(pyrazin-2-ylmethoxy)-5-(trifluoromethyl)benzamide], the inhibition constant (Ki) on rat CB2 [1] (HEK293 membranes, 0.5 nM [3H]CP-55,940, read-out: rat CB2 (Ki)) is 111 nM; on human CB2 receptors (HEK293 membranes, 0.5 nM [3H]CP-55,940, read-out: human CB2 (Ki)) it was 250 nM.
As to `CC(C)(C)n1cc(Cc2ccco2)/c(=N/C(=O)c2cccc(C(F)(F)F)c2F)s1` [Example 70, N-[(5Z)-2-tert-butyl-4-(2-furylmethyl)isothiazol-5(2H)-ylidene]-2-fluoro-3-(trifluoromethyl)benzamide], the Ki worked out at 4.2 nM on rat CB2 [1] and 34 nM at human CB2 receptors.
Consider `CCCCc1cn(C(C)(C)C)s/c1=N\C(=O)[C@]1(C)CC[C@H](C(=O)N(C)OC)C1(C)C` [Example 241, (1R,3S)—N^1-[(5Z)-4-butyl-2-tert-butylisothiazol-5(2H)-ylidene]-N^3-methoxy-N^3,1,2,2-tetramethylcyclopentane-1,3-dicarboxamide], for which the Ki stood at 24 nM at rat CB2 [1] and 20 nM on human CB2 receptors.

The values are drawn from patent publication US8501794B2, “Compounds as cannabinoid receptor ligands” (priority 2007, dated 2013).
